Measured values: patent publication US9884063B2, “Amido-substituted azole compounds” (Bayer Pharma Aktiengesellschaft, priority 2014, dated 2018)

Target: T1, TNKS2 (Homo sapiens, UniProt Q9H2K2)
T1 sequence (Q9H2K2 1-1166): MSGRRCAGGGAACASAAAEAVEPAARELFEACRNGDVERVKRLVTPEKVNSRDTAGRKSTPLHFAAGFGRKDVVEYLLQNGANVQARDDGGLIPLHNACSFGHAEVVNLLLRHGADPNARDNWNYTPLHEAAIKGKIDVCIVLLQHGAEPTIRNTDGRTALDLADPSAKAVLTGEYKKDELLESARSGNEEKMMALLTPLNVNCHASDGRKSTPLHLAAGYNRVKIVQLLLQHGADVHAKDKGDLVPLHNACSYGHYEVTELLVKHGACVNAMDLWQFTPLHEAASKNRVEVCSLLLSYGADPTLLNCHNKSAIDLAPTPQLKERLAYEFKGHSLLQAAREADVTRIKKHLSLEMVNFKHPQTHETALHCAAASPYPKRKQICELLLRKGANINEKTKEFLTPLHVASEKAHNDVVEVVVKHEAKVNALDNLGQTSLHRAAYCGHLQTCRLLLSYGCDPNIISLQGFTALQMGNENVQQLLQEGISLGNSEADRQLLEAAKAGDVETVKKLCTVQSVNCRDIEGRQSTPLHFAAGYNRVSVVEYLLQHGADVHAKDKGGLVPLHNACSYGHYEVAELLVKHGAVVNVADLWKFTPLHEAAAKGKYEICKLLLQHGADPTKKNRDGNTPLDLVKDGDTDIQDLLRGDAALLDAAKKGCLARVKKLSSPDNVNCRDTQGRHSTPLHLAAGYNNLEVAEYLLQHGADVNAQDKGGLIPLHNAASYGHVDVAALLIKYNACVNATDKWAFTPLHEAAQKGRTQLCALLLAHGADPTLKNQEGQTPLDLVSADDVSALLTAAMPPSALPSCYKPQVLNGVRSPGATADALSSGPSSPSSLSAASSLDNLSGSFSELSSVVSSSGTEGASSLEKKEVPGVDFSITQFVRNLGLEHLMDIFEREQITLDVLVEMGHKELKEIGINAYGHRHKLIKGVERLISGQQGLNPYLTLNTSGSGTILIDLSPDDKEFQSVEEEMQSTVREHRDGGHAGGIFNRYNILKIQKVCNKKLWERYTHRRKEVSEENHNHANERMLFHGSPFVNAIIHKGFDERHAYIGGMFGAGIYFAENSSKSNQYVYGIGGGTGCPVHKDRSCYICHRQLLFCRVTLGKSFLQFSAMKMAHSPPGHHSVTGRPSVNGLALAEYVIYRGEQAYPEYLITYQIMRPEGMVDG
Experiment: Modified TNKS2 Assay 3 (BPS kit #80578, biotin-NAD+, 96 well)
Assay type: biochemical
Conditions: human TNKS2, BPS kit #80578, 96 well
Summary of the method: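 Commercial kit assay measuring TNKS2-catalysed incorporation of biotin-labelled NAD+ into a protein substrate, detected by streptavidin-HRP chemiluminescence. Run per manufacturer's protocol; IC50 is the concentration halving the normalised signal.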

Work on `O=C(Nc1ccc(NC(=O)c2[nH]cnc2C(=O)NCCN2CCCCC2)cn1)c1ccc(F)cc1Cl` [Example 110, N^5-{6-[(2-chloro-4-fluorobenzoyl)amino]pyridin-3-yl}-N^4-[2-(piperidin-1-yl)ethyl]-1H-imidazole-4,5-dicarboxamide] yielded an IC50 of 4 nM.
